# Source: patent US9375438B2, “Inhibitors of NCCa-ATP channels for therapy” (University of Maryland, Baltimore, priority 2007, dated 2016)
# “Also recorded” adds a separate entry of the source.
# Key:
# [1] = tested on: cells expressing SUR1-regulated NCCa-ATP channel; conditions: cited from earlier work
# rats with percussion-TBI [2] = assay: Percussion-TBI model: spontaneous forelimb use and spontaneous vertical exploration; format: in vivo, rat
# Text: (§1) Young adult male Long-Evans rats, 240-280 gm, were studied. Rats were anesthetized (Ketamine and Xylazine) and physiological parameters including temperature and blood gases were maintained within appropriate physiological ranges. With the head fixed in a stereotaxic frame, a 6-mm circular craniectomy was created abutting the sagittal and lambdoidal sutures. A posterior location was chosen to emphasize damage to underlying hippocampus (Vink et al., 2001; Floyd et al., 2002). […] Sham controls underwent craniectomy without percussion.
# Spontaneous forelimb use (SFU) was quantified and spontaneous vertical exploration (SVE) was quantified during 7 days post-TBI. SFU measures sensorimotor asymmetry (Schallert et al., 2000) whereas SVE measures not only vestibulomotor function but also time spent in exploratory activity.
# uninjured rats = assay: Tail tip bleeding time; format: in vivo, rat; conditions: for bleeding time (effect): uninjured rats infused with glibenclamide vs vehicle
# Method: Bleeding times were measured using tail tip bleeding as described (Lorrain et al., 2003).
# [3] = tested on: rodent models of ischemic stroke; conditions: model of malignant cerebral edema; cited from earlier work
# [4] = tested on: rats with hemi-cervical spinal cord contusion (SCI); assay: SCI model: lesion size; format: in vivo, rat
# Method: (§2) SCI injury model. This study was performed in accordance with the guidelines of the Institutional Animal Care and Use Committee. Adult female Long-Evans rats (275-350 gm) were anesthetized (Ketamine, 60 mg/kg plus Xylazine, 7.5 mg/kg, i.p.). The dura at C4-5 was exposed via a left hemilaminectomy. A hemi-cervical spinal cord contusion was created using a blunt force impactor (1.3-mm impactor head driven by a 10 gm weight dropped vertically 25 mm) (Soblosky et al., 2001; Gensel et al., 2006). After SCI, animals were given 10 ml of glucose-free normal saline s.q. Rectal temperature was maintained at ˜37° C. using a servo-controlled warming blanket. Blood gases and serum glucose 10-15 min post-SCI were: pO2, 95±6 mm Hg; pCO2, 46±3 mm Hg; pH, 7.33±0.01; glucose 258±17 mg/dl in controls and pO2, 96±7 mm Hg; pCO2, 45±2 mm Hg; pH, 7.37±0.01; glucose 242±14 mg/dl in glibenclamide-treated animals.
# Drug delivery. […] During the course of the project, slightly different formulations of drug were used, with the best results obtained using stock solutions made by placing 50 mg (or 25 mg) of drug into 10 ml DMSO, and infusion solutions made by placing 400 μl (or 800 μl) stock into 4.6 ml (or 4.2 ml) unbuffered saline (0.9% NaCl) and adjusting the pH to ˜8.5 using 0.1 N NaOH.
# Lesion size. At 7 d post-SCI, cords were paraffin sectioned and stained with H&E. Lesion volumes were calculated from lesion areas measured on serial sections every 250 μm.
# Immunohistochemistry. Cryosections were immunolabeled (Chen et al., 2003; Simard et al., 2006) using primary antibodies directed against SUR1 (Santa Cruz, C-16; 1:200; 1 h at RT, 48 h at 4° C.), SUR2 (Santa Cruz, H-80; 1:200; 1 h at RT, 48 h at 4° C.), GFAP (Sigma, C-9205; 1:500), and vimentin (Sigma, monoclonal CY3 conjugated; 1:100). Quantitative immunofluorescence was performed as described (Gerzanich et al., 2003).
# [5] = Effect of glibenclamide doses on serum glucose; format: in vivo, rat; conditions: uninjured rats and rats with stroke and SCI; dose1-dose4
# [6] = tested on: rats with hemi-cervical spinal cord contusion (SCI); assay: SCI model: neurobehavioral assessment (inclined plane, paw placement, rearing); format: in vivo, rat
# Method: as §2, with “blanket.” for “blanket. Blood gases and serum glucose 10-15 min post-SCI were: pO2, 95±6 mm Hg; pCO2, 46±3 mm Hg; pH, 7.33±0.01; glucose 258±17 mg/dl in controls and pO2, 96±7 mm Hg; pCO2, 45±2 mm Hg; pH, 7.37±0.01; glucose 242±14 mg/dl in glibenclamide-treated animals.”
# (§3) For in vivo gene suppression of SUR1, we used oligodeoxynucleotides that were phosphorothioated at 4 distal bonds to protect against endogenous nucleases (35).
# Neurobehavioral Assessment. All measurements were performed by blinded evaluators. Performance on the inclined plane was evaluated as described (Rivlin and Tator, 1977). To assess paw placement and vertical exploration (rearing) (Nikulina et al., 2004) animals were videotaped while in a translucent cylinder (19×20 cm). Rearing was quantified as the number of seconds spent with both front paws elevated above shoulder-height during a 3-min period of observation.
# [7] = Long-Evans, rat, in vivo
# rats with percussion-TBI [8] = assay: Percussion-TBI model: extravasated blood in brain homogenates; format: in vivo, rat
# Text: as §1
# [9] = tested on: rats with hemi-cervical spinal cord contusion (SCI); conditions: following SCI (Simard et al., 2007); cited from earlier work
# rats with percussion-TBI [10] = assay: Percussion-TBI model: lesion size and hippocampal neurons (Nissl sections); format: in vivo, rat; conditions: 7 days post-TBI
# Text: as §1
# [11] = tested on: recombinant MMP-2 and MMP-9; assay: Zymography, gelatinase activity of recombinant MMP; format: biochemical; conditions: glibenclamide 10 μM; MMP-inhibitor II 300 nM
# Method: Zymography of recombinant MMP-2 and MMP-9 (Sigma) was performed as described (Sumii and Lo, 2002).
# [12] = tested on: rats with hemi-cervical spinal cord contusion (SCI); assay: SCI model: extravasated blood in cord (tissue blood); format: in vivo, rat
# Method: as §2, with “blanket.” for “blanket. Blood gases and serum glucose 10-15 min post-SCI were: pO2, 95±6 mm Hg; pCO2, 46±3 mm Hg; pH, 7.33±0.01; glucose 258±17 mg/dl in controls and pO2, 96±7 mm Hg; pCO2, 45±2 mm Hg; pH, 7.37±0.01; glucose 242±14 mg/dl in glibenclamide-treated animals.”
# as §3
# Tissue blood. Rats were sacrificed at various times after SCI (n=5-11 rats/group), were perfused with heparinized saline to remove intravascular blood, and 5-mm segments of cord encompassing the lesion were homogenized and processed as described (Choudhri et al., 1997).
# [13] = 1, 3 and 7 d post-SCI, glibenclamide vs vehicle
structure (smiles),measurement,setting,value
COc1ccc(Cl)cc1C(=O)NCCc1ccc(S(=O)(=O)NC(=O)NC2CCCCC2)cc1 [glibenclamide],oncotic (necrotic) cell death on ATP depletion,[1],can be blocked
same,spontaneous vertical exploration (SVE),"rats with percussion-TBI [2]; 1, 2 and 7 days post-TBI, vs vehicle controls",significantly greater
same,spontaneous use of the forelimb contralateral to the injury,rats with percussion-TBI [2]; 2 days post-TBI,16.5±3.4%
same,bleeding time (effect),uninjured rats,no effect
same,bleeding time (effect),uninjured rats; listed as Glibenclamide,did not affect
same,tail bleeding time,"uninjured rats; uninjured rats, same dose (200 ng/hr), n=3-5",21.5 ± 3.1 s
same,mortality,[3],by half
same,"lesions, gliosis and myelin (GFAP and myelin labeling)","[4]; 24 h post-SCI, vs controls","smaller lesions, less reactive gliosis and better myelin preservation"
same,lesions on hematoxylin and eosin cross sections,"[4]; 7 d post-SCI, vs controls",smaller lesions
same,reduction in lesion volume,"[4]; following SCI, compared to controls (summary)",3 fold
same,effect of proposed doses on serum glucose,[5],"only the highest are hypoglycemogenic, but only mildly so"
same,performance on inclined plane,[6]; [13],significantly better performance
same,"vertical exploratory behavior (rearing), performance",[6]; [13],significantly better performance
same,vertical exploratory behavior (rearing),"[6]; 1 d post-SCI, additional groups, 14-15 rats/group, 3-min observation",42 ± 7 s
same,ipsilateral paw placement,"[6]; 1 d post-SCI, glibenclamide vs vehicle",significantly better performance
same,mobility / exploratory behavior,"[6]; post-SCI, vs vehicle-treated rats",typically ambulatory and often exhibited proficient exploratory behavior
same,time required to achieve 90% steady-state serum drug levels,[7],3 h
same,appearance of tissue homogenates,"rats with percussion-TBI [8]; 24 hr post-injury, vs vehicle",visibly less bloody
same,increase in extravasated blood,"rats with percussion-TBI [8]; later times (6 and 24 hr) post-TBI, vs vehicle",prevented further increases in blood
same,volume of blood in brain homogenate,"rats with percussion-TBI [8]; ½ hr post-injury, glibenclamide 200 ng/hr s.q. vs vehicle",did not affect
same,capillary fragmentation and progressive secondary hemorrhage,[9],essentially eliminates
same,lesion area on coronal sections at the epicenter of injury,rats with percussion-TBI [10]; 10 rats/group,4.4±0.8 mm^2
same,hippocampus on Nissl stained sections,rats with percussion-TBI [10]; vs vehicle,sparing of hippocampus
same,gelatinase activity of recombinant MMP,[11],the same; also recorded: not affected
same,hemorrhage in cords (visual),"[12]; 24 h post-SCI, glibenclamide 200 ng/h s.q. vs vehicle",visibly less hemorrhage
same,extravasated blood in tissue homogenates,"[12]; during the 24 h after injury, glibenclamide 200 ng/h s.q. vs vehicle",little increase
same,PHN,[12]; following SCI (summary),significantly reduced
